# Results reported in US20180064662A1 (THE GENERAL HOSPITAL CORPORATION, priority 2015, published 2018).
# Columns and labels:
# breast cancer = assay: Breast cancer patients treated with bevacizumab in the neoadjuvant setting; format: in vivo, human; settings: normal weight patients
# PAN02 tumors [1] = assay: Orthotopic PAN02 PDAC in lean and obese C57BL/6 mice (5-FU, losartan, TAN depletion, IL-1β inhibition); format: in vivo, mouse; settings: for gene and protein expression of activated PSC marker αSMA: losartan 90 mg/Kg i.p. every day
# Description: (§1) Wild-type (WT) C57BL/6 and FVB male mice were originally obtained from Jackson Laboratory (The Jackson Laboratory, Bar Harbor, Me.) and bred and maintained in our defined-flora colony. KPC (Ptfl-Cre/LSL-KRAS^G12D/p53-R172H) and iKRAS (p48-Cre;R26-rtTa-IRES-EGFP;TetO-Kras^G12D mice) mice were obtained. To generate an obese model, mice (6-week old) were given either 10% or a 60% fat diet (D12450J and D12492, Research Diets, New Brunswick, N.J.) for 10 weeks (or until tumor collection in spontaneous models), as previously described (Surwit, R. S., et al. Metabolism: clinical and experimental 44, 645-651 (1995)). For implanted tumor experiments, AK4.4 cells (KrasG12D and p53 ? /−) were isolated from mice generating spontaneous pancreatic tumors (Ptf1-Cre/LSL-Kras^G12D/p53Lox/ ? ) (Bardeesy, N., et al. Proc Natl Acad SciUSA103, 5947-5952 (2006)). Orthotopic pancreatic tumors were generated by implanting a small piece (1 mm^3) of viable tumor tissue (from a source tumor in a separate animal) into the pancreas of a 6-8 week-old male lean or obese FVB (AK4.4 model) or C57BL/6 (PAN02 model) mouse. PAN02 tumor chunks and AK4.4 cells were authenticated by IDEXX laboratories. (PAN02: IDEXX RADIL Case # 22366-2013. AK4.4: IDEXX RADIL Case #27818-2014). For AT1- and AT2-knockout studies, tumors were implanted into the pancreas of a 6-8-week-old male lean or obese C57BL/ 6, agtr1 a−/− or agtr2−/− mice.
# (§2) For all experiments unless specified below, mice bearing orthotropic PAN02 or AK4.4 pancreatic tumors were randomized into treatment groups (or no treatment) and tumors were collected at day 21 after implantation. For tumor growth study with chemotherapy, mice were divided into treatment groups 7 days after implantation, and treated with either 5-FU (30 mg/Kg i.v. every 4 days) or an equal volume of saline by intravenous injection on days 7, 11 and 15 after implantation, with tumors collected at day 19. For tumor growth study with losartan, mice were treated with losartan (90 mg/Kg i.p. every day) or an equal volume of PBS intraperitoneally starting on day 5 after implantation and for the duration of the study. In the combined experiment of losartan and 5-FU, the same protocol was used for each drug as described above. TAN depletion by a Ly6G specific inhibitor (BioExcell, 4 mg/Kg i.p. every 2 days) was administered to PAN02 bearing animals starting at day 1 or day 7, and to AK4.4 bearing animals at day 7. IL-1β inhibition (MM425B, Endogen/Pierce Biotechnology, 2 mg/Kg i.p. every 2 days) was administered to PAN02 bearing animals starting at day 7. At the completion of the study, adipose tissue and tumor samples were collected, weighed, and processed for further analysis. When spontaneous models were used, tumors were collected when palpable.
# (§3) Angiotensin inhibitor losartan was obtained as pills, crushed and dissolved in PBS over 24 h. The solution was then sterile filtered for injection. Doxorubicin and 5-FU were obtained as solutions for injection. All drugs were purchased from the pharmacy at Massachusetts General
# (§4) To assess obesity-induced ECM remodeling and fibrosis fibrillar collagen accumulation was quantified using second harmonic generation imaging, and collagen-I content, hyaluronan, MMPs levels and fibrosis related signaling pathways (e.g. AT-I, CTGF, TSP1, TGFβ1, and P38/ERK signaling) were measured by rtPCR array, immunohistochemistry and immunoblotting. The topographical distribution and density of cancer-associated fibroblasts (CAFs) in tumor sections was detected by staining for αSMA activated fibroblast marker. Vessel morphology and perfusion was assessed using standard histological analyses.
# AK4.4 tumors = assay: Orthotopic AK4.4 PDAC in lean and obese FVB mice (5-FU, losartan, TAN depletion); format: in vivo, mouse; settings: for response to chemotherapy: losartan with 5-FU
# Description: as §1, §2, §3, §4
# PAN02 tumors [2] = assay: Delivery of chemotherapy to tumors in lean and obese mice; settings: 5-FU 30 mg/kg, 30 min prior to tumor removal, HPLC
# [3] = lean mice, 3 doses of 5-FU 30 mg/kg BW q4d
# [4] = obese conditions, 5-FU 30 mg/kg q4d
# [5] = obese mice, losartan monotherapy
# [6] = tumors from lean mice, losartan
# [7] = tumors from obese but not lean mice, losartan
# [8] = tumors from obese mice, losartan
compound,measurement,setting,value
bevacizumab: antibody against VEGF,tumor hypoxia,breast cancer,acutely increases tumor hypoxia
same,tumor vessels,breast cancer,reduces tumor vessels
"O=c1[nH]cc(F)c(=O)[nH]1 [5-FU, 5-fluorouracil]",reduction in tumor weight as compared to untreated controls,PAN02 tumors [1]; [3],50%
same,tumor weight,PAN02 tumors [1]; [4],did not significantly reduce tumor weight
same,reduction in tumor weight as compared to untreated controls,AK4.4 tumors; [3],50%
same,tumor weight,AK4.4 tumors; [4],did not significantly reduce tumor weight
same,delivery of 5-FU to tumors in obese mice versus lean,PAN02 tumors [2],decreased
CCCCc1nc(Cl)c(CO)n1Cc1ccc(-c2ccccc2-c2nn[nH]n2)cc1 [losartan],gene and protein expression of activated PSC marker αSMA,PAN02 tumors [1]; lean animals,only mildly
same,response to chemotherapy,"PAN02 tumors [1]; obese animals, losartan with 5-FU",improved response to chemotherapy
same,cytokine expression in tumors (multiplex protein),"PAN02 tumors [1]; obese mice, losartan",reduced the expression of multiple cytokines including IL-1β
same,tumor weight,PAN02 tumors [1]; [5],reduced tumor weight
same,gene and protein expression of collagen-I and fibrillar collagen,PAN02 tumors [1]; [6],not lean mice
same,gene and protein expression of activated PSC marker αSMA,PAN02 tumors [1]; tumors from obese animals,reduce gene and protein expression
same,chemotherapy delivery,PAN02 tumors [1]; [7],increase chemotherapy delivery
same,tumor perfusion,PAN02 tumors [1]; [7],tended to improve perfusion
same,gene and protein expression of collagen-I and fibrillar collagen,PAN02 tumors [1]; [8],decrease in gene and protein expression of collagen-I as well as fibrillar collagen
same,desmoplasia-related markers and AT1 downstream signaling,"AK4.4 tumors; lean animals, losartan",only modest
same,gene and protein expression of activated PSC marker αSMA,"AK4.4 tumors; lean animals, losartan",only mildly
same,response to chemotherapy,AK4.4 tumors; lean setting,improved response to chemotherapy
same,enrichment for GR(+)F480(-) cells within the CD45 population,AK4.4 tumors; losartan treatment,tended to decrease the enrichment
same,enrichment for T regulatory cells within CD4 cells,AK4.4 tumors; losartan treatment,tended to decrease
same,cytokine expression in tumors (multiplex protein),"AK4.4 tumors; obese mice, losartan",reduced the expression of multiple cytokines including IL-1β
same,"desmoplasia-related markers (AT1, TGF-β, SMAD2, vimentin, E-cadherin, snail, MMP9, decorin) and AT1 downstream signaling","AK4.4 tumors; obese mice, losartan",normalized the obesity-induced abnormal expression
same,tumor weight,AK4.4 tumors; [5],reduced tumor weight
same,response to chemotherapy,AK4.4 tumors; obese setting,higher magnitude
same,gene and protein expression of collagen-I and fibrillar collagen,AK4.4 tumors; [6],not lean mice
same,gene and protein expression of activated PSC marker αSMA,"AK4.4 tumors; tumors from obese animals, losartan 90 mg/Kg i.p. every day",reduce gene and protein expression
same,chemotherapy delivery,AK4.4 tumors; [7],increase chemotherapy delivery
same,tumor perfusion,AK4.4 tumors; [7],tended to improve perfusion
same,gene and protein expression of collagen-I and fibrillar collagen,AK4.4 tumors; [8],decrease in gene and protein expression of collagen-I as well as fibrillar collagen
